The target of data set [1] is Proto-oncogene tyrosine-protein kinase Src (Homo sapiens, UniProt P12931). The experiment in a line: Inhibition of SRC.
Data set [2] in a line: Metabolic stability in mouse assessed as extraction ratio at 20 mg/kg, po. The format is ADME, organism-based. Details: dose 20 mg/kg, route oral. The note with it: in vivo.
Data set [3] concerns the target Tyrosine-protein kinase Lck (Homo sapiens, UniProt P06239). The data set is described as follows: Inhibition of LCK.
The nature of data set [4]: (§1) AUC in mouse at 20 mg/kg, po. It is filed as ADME, organism-based, Plasma. Details: dose 20 mg/kg, route oral. The note with it: mouse, plasma, po, 20 mg/kg.
For data set [5], the target named is Tyrosine-protein kinase HCK (Homo sapiens, UniProt P08631). The data set is described as follows: Inhibition of HCK.
Sequence of Tyrosine-protein kinase HCK (P08631 whole entry): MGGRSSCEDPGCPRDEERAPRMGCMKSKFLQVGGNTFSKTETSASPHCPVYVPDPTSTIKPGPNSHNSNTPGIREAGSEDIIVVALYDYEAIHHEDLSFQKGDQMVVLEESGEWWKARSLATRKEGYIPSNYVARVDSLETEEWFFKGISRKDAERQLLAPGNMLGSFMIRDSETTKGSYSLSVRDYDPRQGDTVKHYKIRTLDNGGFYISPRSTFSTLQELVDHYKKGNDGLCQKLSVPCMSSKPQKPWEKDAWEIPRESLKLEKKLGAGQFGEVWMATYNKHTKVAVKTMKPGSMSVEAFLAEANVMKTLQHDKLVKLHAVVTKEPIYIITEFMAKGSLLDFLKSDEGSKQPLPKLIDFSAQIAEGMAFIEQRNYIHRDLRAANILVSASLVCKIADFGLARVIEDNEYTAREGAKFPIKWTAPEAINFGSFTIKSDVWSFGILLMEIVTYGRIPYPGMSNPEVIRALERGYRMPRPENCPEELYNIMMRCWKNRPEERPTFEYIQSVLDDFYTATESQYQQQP
Data set [6] has as its system Mus musculus. The description is as §1. Details: dose 20 mg/kg, route oral. The format is ADME, organism-based, Plasma.
Data set [7] relates to BaF3. The data set is described as follows: Cytotoxicity against mouse BAF3 cells. It is filed as functional, cell-based.

pIC50: −log10 of the molar value.

Sequence of Tyrosine-protein kinase Lck (P06239 whole entry): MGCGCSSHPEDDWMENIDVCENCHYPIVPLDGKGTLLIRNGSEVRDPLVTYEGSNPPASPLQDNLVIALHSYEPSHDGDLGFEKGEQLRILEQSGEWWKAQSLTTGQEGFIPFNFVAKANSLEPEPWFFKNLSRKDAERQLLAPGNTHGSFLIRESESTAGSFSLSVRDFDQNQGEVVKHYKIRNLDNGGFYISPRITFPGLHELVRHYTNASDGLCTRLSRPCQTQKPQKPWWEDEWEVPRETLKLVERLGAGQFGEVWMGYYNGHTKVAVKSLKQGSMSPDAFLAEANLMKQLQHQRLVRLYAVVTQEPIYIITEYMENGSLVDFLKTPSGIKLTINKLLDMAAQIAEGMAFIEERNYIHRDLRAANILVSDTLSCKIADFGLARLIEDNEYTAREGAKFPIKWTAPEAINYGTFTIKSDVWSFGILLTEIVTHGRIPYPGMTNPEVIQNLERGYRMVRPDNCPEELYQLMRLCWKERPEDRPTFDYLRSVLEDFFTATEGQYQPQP
Sequence of Proto-oncogene tyrosine-protein kinase Src (P12931 2-536 limits assumed): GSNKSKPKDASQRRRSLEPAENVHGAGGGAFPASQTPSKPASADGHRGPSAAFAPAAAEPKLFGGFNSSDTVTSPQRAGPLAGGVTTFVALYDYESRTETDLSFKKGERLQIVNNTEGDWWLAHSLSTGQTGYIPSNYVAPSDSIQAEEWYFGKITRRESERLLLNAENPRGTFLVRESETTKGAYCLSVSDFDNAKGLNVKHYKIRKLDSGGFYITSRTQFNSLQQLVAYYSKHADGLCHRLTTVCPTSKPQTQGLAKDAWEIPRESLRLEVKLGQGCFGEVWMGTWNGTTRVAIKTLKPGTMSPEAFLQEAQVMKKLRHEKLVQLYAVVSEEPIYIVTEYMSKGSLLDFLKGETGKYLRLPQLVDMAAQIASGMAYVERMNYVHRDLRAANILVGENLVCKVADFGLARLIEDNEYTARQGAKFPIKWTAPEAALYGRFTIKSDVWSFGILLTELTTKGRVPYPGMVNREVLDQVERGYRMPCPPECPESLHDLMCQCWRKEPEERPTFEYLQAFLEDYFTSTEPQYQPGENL

What is called pIC50 is −log10 of the IC50, conventionally taken in molar units. Read a low pIC50 as a high IC50. As to `CCN(CC)CCCCNc1cc(-n2c(Nc3cc(NC(=O)c4cccc(C(F)(F)F)c4)ccc3C)nc3ccccc32)ncn1`, the pIC50 is 7.01 in data set [1], 7.92 in data set [3] and 6.37 in data set [5]. Further, the hepatic extraction ratio in data set [2] is less than 0.3. Also, the AUC in data set [4] is 0.368 µM·h.
Take `Cc1ccc(NC(=O)c2cccc(C(F)(F)F)c2)cc1Nc1nc2ccccc2n1-c1cc(N[C@H]2CC[C@H](N)CC2)ncn1`: the pIC50 in data set [1] is 5.76; in data set [3], 7.15; in data set [5], 6.35. Moreover, the hepatic extraction ratio in data set [2] was 0.383.
`COCCNc1cc(-n2c(Nc3cc(NC(=O)c4cccc(C(F)(F)F)c4)ccc3C)nc3ccccc32)ncn1`: the pIC50 in data set [1] was 5.77; in data set [3], 6.87; in data set [5], 6.39. Further, in data set [6], the AUC was determined as 2687 nmol·h/L.
On to `Cc1ccc(NC(=O)c2ccc(C(C)(C)C)s2)cc1Nc1nc2ccccc2n1-c1cc(N)ncn1`, for which the pIC50 in data set [1] was 6.04; in data set [3] it was 7.37; in data set [5], 7.08; in data set [7] it was 8.22.

For the origin of these results see ChEMBL document CHEMBL1154389, “Discovery of pyrimidine benzimidazoles as Src-family selective Lck inhibitors. Part II” (Bioorg Med Chem Lett, 2009).
